Laboratory results reported in the NIST ThermoML archive (doi:10.1021/acs.jced.5b01000).
± gives the expanded uncertainty stated by the source.

Key:
[1] = xn = mol fraction of the nth substance listed; conditions: 99 kPa, Liquid; for viscosity: Capillary tube (Ostwald / Ubbelohde) method; for speed of sound: Frequency=3 MHz, Sing-around technique in a fixed-path interferometer; for mass density: Vibrating tube method
[2] = refractive index (Na D-line) (dimensionless); xn = mol fraction of the nth substance listed; conditions: 99 kPa, Liquid, Standard Abbe refractometry

CC(=O)N(C)C [N,N-dimethylethanamide] + CCO
Conditions | mass density, [1] [kg/m3] | refractive index, [2] | speed of sound, [1] [m/s] | viscosity, [1] [mPa·s]
283.15 K, x1 = 0.0524 | 811.441 ± 0.2 | 1.37246 ± 0.00035 | 1225.3 ± 1.2 | 1.369 ± 0.016
283.15 K, x1 = 0.1071 | 824.492 ± 0.2 | 1.37916 ± 0.00035 | 1254.6 ± 1.2 | 1.306 ± 0.015
283.15 K, x1 = 0.2064 | 845.481 ± 0.2 | 1.39001 ± 0.00035 | 1298 ± 1.2 | 1.229 ± 0.014
283.15 K, x1 = 0.3022 | 863.302 ± 0.2 | 1.39925 ± 0.00035 | 1334.9 ± 1.2 | 1.187 ± 0.014
283.15 K, x1 = 0.4057 | 880.337 ± 0.2 | 1.40801 ± 0.00035 | 1369.6 ± 1.2 | 1.166 ± 0.013
283.15 K, x1 = 0.5032 | 894.71 ± 0.2 | 1.41538 ± 0.00035 | 1399.5 ± 1.2 | 1.161 ± 0.013
283.15 K, x1 = 0.6016 | 907.87 ± 0.2 | 1.42196 ± 0.00036 | 1427.3 ± 1.2 | 1.16 ± 0.013
283.15 K, x1 = 0.7065 | 920.678 ± 0.2 | 1.42823 ± 0.00036 | 1454 ± 1.3 | 1.164 ± 0.013
283.15 K, x1 = 0.8013 | 931.158 ± 0.21 | 1.43325 ± 0.00036 | 1476.5 ± 1.3 | 1.17 ± 0.014
283.15 K, x1 = 0.9021 | 941.312 ± 0.21 | 1.43826 ± 0.00036 | 1498.3 ± 1.3 | 1.172 ± 0.014
283.15 K, x1 = 0.9529 | 946.061 ± 0.21 | 1.44059 ± 0.00036 | 1508.5 ± 1.3 | 1.169 ± 0.014
283.15 K, x1 = 1 | 950.131 ± 0.21 | 1.44273 ± 0.00036 | 1516.8 ± 1.3 | 1.168 ± 0.014
298.15 K, x1 = 0.0524 | 798.435 ± 0.2 | 1.36619 ± 0.00035 | 1172.1 ± 1.2 | 1.038 ± 0.012
298.15 K, x1 = 0.1071 | 811.331 ± 0.2 | 1.37281 ± 0.00035 | 1199.9 ± 1.2 | 1.003 ± 0.012
298.15 K, x1 = 0.2064 | 832.087 ± 0.2 | 1.38351 ± 0.00035 | 1242.5 ± 1.2 | 0.9558 ± 0.011
298.15 K, x1 = 0.3022 | 849.767 ± 0.2 | 1.39264 ± 0.00035 | 1277.4 ± 1.2 | 0.9319 ± 0.011
298.15 K, x1 = 0.4057 | 866.689 ± 0.2 | 1.40131 ± 0.00035 | 1312.1 ± 1.2 | 0.9212 ± 0.011
298.15 K, x1 = 0.5032 | 881.006 ± 0.2 | 1.40863 ± 0.00035 | 1341 ± 1.2 | 0.9169 ± 0.011
298.15 K, x1 = 0.6016 | 894.141 ± 0.2 | 1.41518 ± 0.00036 | 1367.9 ± 1.2 | 0.921 ± 0.011
298.15 K, x1 = 0.7065 | 906.822 ± 0.2 | 1.42135 ± 0.00036 | 1394.4 ± 1.3 | 0.9259 ± 0.011
298.15 K, x1 = 0.8013 | 917.351 ± 0.2 | 1.4264 ± 0.00036 | 1415.7 ± 1.3 | 0.9311 ± 0.011
298.15 K, x1 = 0.9021 | 927.481 ± 0.21 | 1.43136 ± 0.00036 | 1437.6 ± 1.3 | 0.9309 ± 0.011
298.15 K, x1 = 0.9529 | 932.213 ± 0.21 | 1.43367 ± 0.00036 | 1446.3 ± 1.3 | 0.9307 ± 0.011
298.15 K, x1 = 1 | 936.289 ± 0.21 | 1.43579 ± 0.00036 | 1453.7 ± 1.3 | 0.9299 ± 0.011
313.15 K, x1 = 0.0524 | 785.68 ± 0.2 | 1.35974 ± 0.00035 | 1120.6 ± 1.2 | 0.8029 ± 0.0093
313.15 K, x1 = 0.1071 | 798.43 ± 0.2 | 1.36632 ± 0.00035 | 1147.6 ± 1.2 | 0.7849 ± 0.0091
313.15 K, x1 = 0.2064 | 818.908 ± 0.2 | 1.37691 ± 0.00035 | 1188.7 ± 1.2 | 0.7611 ± 0.0089
313.15 K, x1 = 0.3022 | 836.413 ± 0.2 | 1.38598 ± 0.00035 | 1222.6 ± 1.2 | 0.7493 ± 0.0088
313.15 K, x1 = 0.4057 | 853.186 ± 0.2 | 1.39461 ± 0.00035 | 1256.3 ± 1.2 | 0.7462 ± 0.0087
313.15 K, x1 = 0.5032 | 867.418 ± 0.2 | 1.40189 ± 0.00035 | 1284.2 ± 1.2 | 0.7469 ± 0.0088
313.15 K, x1 = 0.6016 | 880.488 ± 0.2 | 1.40843 ± 0.00036 | 1310.5 ± 1.2 | 0.7516 ± 0.0088
313.15 K, x1 = 0.7065 | 893.143 ± 0.2 | 1.41463 ± 0.00036 | 1336.3 ± 1.2 | 0.7581 ± 0.0089
313.15 K, x1 = 0.8013 | 903.56 ± 0.2 | 1.41962 ± 0.00036 | 1358.5 ± 1.3 | 0.7623 ± 0.009
313.15 K, x1 = 0.9021 | 913.657 ± 0.21 | 1.4246 ± 0.00036 | 1378.5 ± 1.3 | 0.7643 ± 0.009
313.15 K, x1 = 0.9529 | 918.346 ± 0.21 | 1.42688 ± 0.00036 | 1386 ± 1.3 | 0.7651 ± 0.0091
313.15 K, x1 = 1 | 922.429 ± 0.21 | 1.42901 ± 0.00036 | 1393.3 ± 1.3 | 0.7644 ± 0.0091

CC(=O)N(C)C [N,N-dimethylethanamide] + CO
Conditions | mass density, [1] [kg/m3] | refractive index, [2] | speed of sound, [1] [m/s] | viscosity, [1] [mPa·s]
283.15 K, x1 = 0.0602 | 823.325 ± 0.2 | 1.34879 ± 0.00035 | 1204.4 ± 1.2 | 0.7266 ± 0.0085
283.15 K, x1 = 0.1088 | 838.649 ± 0.2 | 1.35969 ± 0.00035 | 1242 ± 1.2 | 0.7638 ± 0.0089
283.15 K, x1 = 0.2079 | 864.147 ± 0.2 | 1.37803 ± 0.00035 | 1305.6 ± 1.2 | 0.831 ± 0.0097
283.15 K, x1 = 0.304 | 883.509 ± 0.2 | 1.39207 ± 0.00035 | 1353.4 ± 1.2 | 0.892 ± 0.01
283.15 K, x1 = 0.4055 | 899.792 ± 0.2 | 1.40414 ± 0.00035 | 1394 ± 1.2 | 0.9491 ± 0.011
283.15 K, x1 = 0.5011 | 912.039 ± 0.2 | 1.41331 ± 0.00035 | 1424.8 ± 1.2 | 0.9971 ± 0.012
283.15 K, x1 = 0.6014 | 922.607 ± 0.2 | 1.42138 ± 0.00036 | 1450.4 ± 1.3 | 1.041 ± 0.012
283.15 K, x1 = 0.7036 | 931.645 ± 0.2 | 1.42811 ± 0.00036 | 1473.1 ± 1.3 | 1.083 ± 0.013
283.15 K, x1 = 0.803 | 938.688 ± 0.21 | 1.43369 ± 0.00036 | 1489.2 ± 1.3 | 1.117 ± 0.013
283.15 K, x1 = 0.9076 | 945.177 ± 0.21 | 1.43878 ± 0.00036 | 1505 ± 1.3 | 1.149 ± 0.013
283.15 K, x1 = 0.9502 | 947.535 ± 0.21 | 1.4407 ± 0.00036 | 1510.7 ± 1.3 | 1.158 ± 0.013
283.15 K, x1 = 1 | 950.131 ± 0.21 | 1.44273 ± 0.00036 | 1516.8 ± 1.3 | 1.168 ± 0.014
298.15 K, x1 = 0.0602 | 809.208 ± 0.2 | 1.3423 ± 0.00035 | 1154.4 ± 1.2 | 0.5868 ± 0.0069
298.15 K, x1 = 0.1088 | 824.553 ± 0.2 | 1.35319 ± 0.00035 | 1190.7 ± 1.2 | 0.6156 ± 0.0072
298.15 K, x1 = 0.2079 | 849.999 ± 0.2 | 1.37142 ± 0.00035 | 1250.8 ± 1.2 | 0.6706 ± 0.0079
298.15 K, x1 = 0.304 | 869.253 ± 0.2 | 1.38536 ± 0.00035 | 1297.1 ± 1.2 | 0.7197 ± 0.0084
298.15 K, x1 = 0.4055 | 885.574 ± 0.2 | 1.39737 ± 0.00035 | 1336 ± 1.2 | 0.764 ± 0.0089
298.15 K, x1 = 0.5011 | 897.92 ± 0.2 | 1.40652 ± 0.00035 | 1365.2 ± 1.2 | 0.8017 ± 0.0094
298.15 K, x1 = 0.6014 | 908.603 ± 0.2 | 1.41458 ± 0.00036 | 1391.2 ± 1.2 | 0.8364 ± 0.0098
298.15 K, x1 = 0.7036 | 917.769 ± 0.2 | 1.42131 ± 0.00036 | 1413.5 ± 1.3 | 0.8692 ± 0.01
298.15 K, x1 = 0.803 | 924.814 ± 0.2 | 1.42684 ± 0.00036 | 1429.2 ± 1.3 | 0.8941 ± 0.01
298.15 K, x1 = 0.9076 | 931.291 ± 0.21 | 1.43186 ± 0.00036 | 1443.4 ± 1.3 | 0.9147 ± 0.011
298.15 K, x1 = 0.9502 | 933.67 ± 0.21 | 1.43378 ± 0.00036 | 1449.2 ± 1.3 | 0.9232 ± 0.011
298.15 K, x1 = 1 | 936.289 ± 0.21 | 1.43579 ± 0.00036 | 1453.7 ± 1.3 | 0.9299 ± 0.011
313.15 K, x1 = 0.0602 | 794.82 ± 0.2 | 1.33598 ± 0.00035 | 1103.1 ± 1.2 | 0.479 ± 0.0057
313.15 K, x1 = 0.1088 | 810.116 ± 0.2 | 1.3468 ± 0.00035 | 1138.1 ± 1.2 | 0.5045 ± 0.006
313.15 K, x1 = 0.2079 | 835.563 ± 0.2 | 1.36494 ± 0.00035 | 1196.3 ± 1.2 | 0.5501 ± 0.0065
313.15 K, x1 = 0.304 | 854.874 ± 0.2 | 1.37881 ± 0.00035 | 1240.7 ± 1.2 | 0.5911 ± 0.007
313.15 K, x1 = 0.4055 | 871.236 ± 0.2 | 1.39075 ± 0.00035 | 1278.3 ± 1.2 | 0.6287 ± 0.0074
313.15 K, x1 = 0.5011 | 883.681 ± 0.2 | 1.39987 ± 0.00035 | 1306.9 ± 1.2 | 0.6592 ± 0.0078
313.15 K, x1 = 0.6014 | 894.459 ± 0.2 | 1.40791 ± 0.00036 | 1332.7 ± 1.2 | 0.689 ± 0.0081
313.15 K, x1 = 0.7036 | 903.693 ± 0.2 | 1.4146 ± 0.00036 | 1353 ± 1.2 | 0.7156 ± 0.0084
313.15 K, x1 = 0.803 | 910.885 ± 0.2 | 1.42013 ± 0.00036 | 1370.2 ± 1.3 | 0.7362 ± 0.0087
313.15 K, x1 = 0.9076 | 917.391 ± 0.21 | 1.42511 ± 0.00036 | 1383.7 ± 1.3 | 0.7539 ± 0.0089
313.15 K, x1 = 0.9502 | 919.775 ± 0.21 | 1.42701 ± 0.00036 | 1388.9 ± 1.3 | 0.7607 ± 0.009
313.15 K, x1 = 1 | 922.429 ± 0.21 | 1.42901 ± 0.00036 | 1393.3 ± 1.3 | 0.7644 ± 0.0091
